Data on two compounds can be found in PMC12406253, “Exploration of the Neuromodulatory Properties of Fyn and GSK-3β Kinases Exploiting 7‑Azaindole-Based Inhibitors” (Journal of Medicinal Chemistry, 2025).

Molecules are shown by their SMILES.

By inhibition is commonly meant the percentage by which the read-out fell short of the control. A lower inhibition goes with a response near the control. As usually defined, the Papp A→B is how fast a substance crosses the layer from the apical side. Lower therefore signals slow passage.

One series has as its target T1, PKCα(h) (Homo sapiens, UniProt P17252).
T1 construct: purchased Eurofins KinaseProfiler (Eurofins Cerep)
As to the kind of experiment: Eurofins KinaseProfiler radiometric kinase assay. It counts as biochemical. The settings on record: read-out: PKCα(h) % Residual activity.

Another series concerns the target T2, PKA(h) (Homo sapiens, UniProt P17612).
T2 construct: purchased Eurofins KinaseProfiler (Eurofins Cerep)
Put plainly: Eurofins KinaseProfiler radiometric kinase assay. The settings on record: for remaining activity at 10 µM: read-out: PKA(h) % Residual activity. In kind it is biochemical.

A further series concerns the target T3, CK1γ1(h) (Homo sapiens, UniProt Q9HCP0).
T3 construct: purchased Eurofins KinaseProfiler (Eurofins Cerep)
As to the kind of experiment: Eurofins KinaseProfiler radiometric kinase assay. As to conditions: read-out: CK1γ1(h) % Residual activity. In kind it is biochemical.

The next series deals with T4, CDK1/cyclinB(h) (Homo sapiens, UniProt P06493).
T4 construct: purchased Eurofins KinaseProfiler (Eurofins Cerep)
Put plainly: Eurofins KinaseProfiler radiometric kinase assay. It counts as biochemical. As to conditions: read-out: CDK1/cyclinB(h) % Residual activity.

For another series, the target named is T5, SAPK2a(h) (Homo sapiens, UniProt Q16539).
T5 construct: purchased Eurofins (Eurofins Cerep) KinaseProfiler
Put plainly: Eurofins KinaseProfiler radiometric kinase assay. In kind it is biochemical. The settings on record: read-out: SAPK2a(h) % Residual activity.

The next series addresses T6, CDK7/cyclinH/MAT1(h) (Homo sapiens, UniProt P50613).
T6 construct: purchased Eurofins KinaseProfiler (Eurofins Cerep)
As to the kind of experiment: Eurofins KinaseProfiler radiometric kinase assay. In kind it is biochemical. As to conditions: read-out: CDK7/cyclinH/MAT1(h) % Residual activity.

The next series has as its target T7, MAPKAP-K2(h) (Homo sapiens, UniProt P49137).
T7 construct: purchased Eurofins KinaseProfiler (Eurofins Cerep)
Put plainly: Eurofins KinaseProfiler radiometric kinase assay. In kind it is biochemical. The settings on record: read-out: MAPKAP-K2(h) % Residual activity.

The next series addresses T8, NEK2(h) (Homo sapiens, UniProt P51955).
T8 construct: purchased Eurofins KinaseProfiler (Eurofins Cerep)
Put plainly: Eurofins KinaseProfiler radiometric kinase assay. It counts as biochemical. The settings on record: read-out: NEK2(h) % Residual activity.

For another series, the target named is T9, Rsk1(h) (Homo sapiens, UniProt Q15418).
T9 construct: purchased Eurofins (Eurofins Cerep) KinaseProfiler
As to the kind of experiment: Eurofins KinaseProfiler radiometric kinase assay. It counts as biochemical. As to conditions: for remaining activity at 10 µM: read-out: Rsk1(h) % Residual activity.

Another series concerns the target T10, MLK1(h) (Homo sapiens, UniProt P80192).
T10 construct: purchased Eurofins KinaseProfiler (Eurofins Cerep)
As to the kind of experiment: Eurofins KinaseProfiler radiometric kinase assay. The settings on record: for remaining activity at 10 µM: read-out: MLK1(h) % Residual activity. It counts as biochemical.

The target of a further series is T11, EGFR(h) (Homo sapiens, UniProt P00533).
T11 construct: purchased Eurofins KinaseProfiler (Eurofins Cerep)
As to the kind of experiment: Eurofins KinaseProfiler radiometric kinase assay. In kind it is biochemical. The settings on record: read-out: EGFR(h) % Residual activity.

In the next series the target is T12, CaMKI(h) (Homo sapiens, UniProt Q14012).
T12 construct: purchased Eurofins KinaseProfiler (Eurofins Cerep)
Put plainly: Eurofins KinaseProfiler radiometric kinase assay. It counts as biochemical. The settings on record: read-out: CaMKI(h) % Residual activity.

The next series deals with T13, ALK(h) (Homo sapiens, UniProt Q9UM73).
T13 construct: purchased Eurofins KinaseProfiler (Eurofins Cerep)
Put plainly: Eurofins KinaseProfiler radiometric kinase assay. It counts as biochemical. The settings on record: read-out: ALK(h) % Residual activity.

The target of a further series is T14, MSK2(h) (Homo sapiens, UniProt O75676).
T14 construct: purchased Eurofins KinaseProfiler (Eurofins Cerep)
As to the kind of experiment: Eurofins KinaseProfiler radiometric kinase assay. The settings on record: for remaining activity at 10 µM: read-out: MSK2(h) % Residual activity. It counts as biochemical.

The subject of series [1] is neurospheres (NPCs from the subventricular zone). As to the kind of experiment: Neurosphere differentiation, immunofluorescence of DCX, GFAP, OLIG2. It counts as cell-based, mice. The settings on record: 1 μM; 7 days. From the text: Lastly, we move forward to evaluate the neuromodulatory profile of selected compounds that involves the capability to polarize the spontaneous differentiation of neurospheres, which potentially can maturate in neurons or macroglia, such as astrocytes and oligodendrocytes. Modulating NPC differentiation is especially relevant under neurodegenerative conditions as it could offer an intriguing opportunity to achieve polyhedric therapeutic effects. Importantly, neuronal differentiation may help to counteract the progressive neuronal loss, while promoting oligodendrocyte phenotype could support remyelination and neuronal function and the astrocytic polarization may aid to foster a neuroprotective profile. Particularly, after 7 days of treatment at 1 μM, in the same experimental conditions previously reported, cells were fixed and stained with different antibody markers such as doublecortin (DCX) for the immature neurons, glial fibrillary acidic protein (GFAP) for astrocytes, and oligodendrocyte transcription factor 2 (OLIG2) for oligodendrocyte precursors for immunofluorescence analysis (Figure a). […] By driving the maturation of astrocytes, compounds 41 and 43 could exert neuroprotection through multiple mechanisms, including the secretion of neurotrophic factors, enhancement of antioxidant defenses, regulation of water balance, ion homeostasis, and glutamate buffering and recycling. Furthermore, astrocytes support the integrity of the blood–brain barrier (BBB) and aid in the refinement of neural networks via synaptic pruning, further reinforcing their role in preserving brain function and structure.
NSCs were initially obtained by SVZ microdissection of 6 months-old C57BL/6N wild-type male mice (Mus musculus) and routinely cultured in suspension in DMEM-F12 (Gibco; ThermoFisher Scientific, Waltham, MA, USA) supplemented with 2 mM glutamine, 10 μg/mL insulin from bovine pancreas (Sigma-Aldrich; St Louis, MO, USA), 20 ng/mL epidermal growth factor (EGF; PeproTech EC, London, UK), 20 ng/mL fibroblast growth factor-2 (FGF2; PeproTech), 1% N2 (ThermoFisher Scientific), 1% B27 (ThermoFisher Scientific), 10 units/mL penicillin, and 10 μg streptomycin.
To assess the effect of compounds of interest in NSCs differentiation, 30 spheres were plated on 13 mm glass coverslips, previously coated with Matrigel matrix (Corning; New York, USA), in complete DMEM F-12 medium, and treated with 1 μM of compounds of interest. After 7DIV, neurospheres were fixed for 20 min with 4% PFA in PBS 0.1% pH 7.4. Fixed neurospheres were permeabilized in 0.1% Triton/PBS and nonspecific sites were blocked for 1 h with 0.1% Triton/PBS and 5% normal goat serum (Sigma-Aldrich; St Louis, MO, USA). Cells were then incubated overnight at 4 °C with the following primary antibodies: Anti-Doublecortin DCX (Abcam, Cambridge, UK), GFAP (Dakopatts), OLIG2 (Santa Cruz Biotechnology), 1:500 dilution in 0.1% Triton/PBS with 2% normal goat serum. After 3 washes in 0.1% Triton/PBS, specific secondary antibodies were added for 2 h at RT in the dark: Donkey anti-Mouse IgG Alexafluor 555 (Abcam, Cambridge, UK), Goat anti-Rabbit IgG Alexafluor 555 (Abcam, Cambridge, UK), 1:1000 dilution in 0.1% Triton/PBS with 2% normal goat serum. Following 3 washes in 0.1% Triton/PBS, nuclei were stained with DAPI (2 μg/mL, Sigma-Aldrich) for 5 min. Glass coverslips were mounted by using Ultracruz Aqueous Mounting Medium with DAPI (Santa Cruz Biotechnology). Neurospheres confocal images were obtained with a Nikon EZ-C1 microscope (60× objective) and the z-stack function (1024 steps and 1 μm thickness layers; 40 total stacks). 3D image reconstruction was performed by using Fiji ImageJ2 software, z-project plugin, and selecting the sum stacks’ function. Fluorescence intensity index was estimated as the ratio of markers’ positive cells intensity/total cells fluorescence intensity stained with DAPI per ROI.

A further series has as its target GSK3β(h) (Homo sapiens, UniProt P49841). As to the kind of experiment: Eurofins KinaseProfiler radiometric kinase assay. As to conditions: read-out: GSK3β(h) % Residual activity.
Series [2] is described as follows: BBB permeability in hCMEC/D3 transwell model. The settings on record: human.
Description: To this aim, the immortalized human brain endothelial cell line (hCMEC/D3) was used since it mimics the brain endothelium-restricted permeability and expresses most of the transporters and receptors present in vivo, constituting a valuable in vitro model of the human BBB crossing system.
BBB permeability assay was conducted as described in Albertini et al. The brain microvascular endothelial cells (hCMEC/D3) were seeded at the density of 5 × 10^4 cells per cm^2 in the upper compartment of Transwell filters (polyester, pore size 0.4 μm, 12-well tissue culture transwell; Corning), precoated with rat tail collagen type I (0.1 mg/mL; Roche). […] The concentration of compounds was determined using a Ultimate 3000 HPLC system (ThermoFisher) with UV–vis detection at the maximum absorption wavelength of each compound except for inulin as determined by a spectrophotometric method using a Tecan Sunrise absorbance microplate reader. […] The permeability coefficient (Papp) was calculated as follows: Papp = (ΔQ/Δt)/(C [donor] × A), where ΔQ/Δt represents the permeation rate (mol/s), C [donor] is the initial compound concentration in the donor compartment at time 0 (mol/cm^3), and A represents the surface area of the filter (1.12 cm^2).

T10 sequence (P80192 whole entry): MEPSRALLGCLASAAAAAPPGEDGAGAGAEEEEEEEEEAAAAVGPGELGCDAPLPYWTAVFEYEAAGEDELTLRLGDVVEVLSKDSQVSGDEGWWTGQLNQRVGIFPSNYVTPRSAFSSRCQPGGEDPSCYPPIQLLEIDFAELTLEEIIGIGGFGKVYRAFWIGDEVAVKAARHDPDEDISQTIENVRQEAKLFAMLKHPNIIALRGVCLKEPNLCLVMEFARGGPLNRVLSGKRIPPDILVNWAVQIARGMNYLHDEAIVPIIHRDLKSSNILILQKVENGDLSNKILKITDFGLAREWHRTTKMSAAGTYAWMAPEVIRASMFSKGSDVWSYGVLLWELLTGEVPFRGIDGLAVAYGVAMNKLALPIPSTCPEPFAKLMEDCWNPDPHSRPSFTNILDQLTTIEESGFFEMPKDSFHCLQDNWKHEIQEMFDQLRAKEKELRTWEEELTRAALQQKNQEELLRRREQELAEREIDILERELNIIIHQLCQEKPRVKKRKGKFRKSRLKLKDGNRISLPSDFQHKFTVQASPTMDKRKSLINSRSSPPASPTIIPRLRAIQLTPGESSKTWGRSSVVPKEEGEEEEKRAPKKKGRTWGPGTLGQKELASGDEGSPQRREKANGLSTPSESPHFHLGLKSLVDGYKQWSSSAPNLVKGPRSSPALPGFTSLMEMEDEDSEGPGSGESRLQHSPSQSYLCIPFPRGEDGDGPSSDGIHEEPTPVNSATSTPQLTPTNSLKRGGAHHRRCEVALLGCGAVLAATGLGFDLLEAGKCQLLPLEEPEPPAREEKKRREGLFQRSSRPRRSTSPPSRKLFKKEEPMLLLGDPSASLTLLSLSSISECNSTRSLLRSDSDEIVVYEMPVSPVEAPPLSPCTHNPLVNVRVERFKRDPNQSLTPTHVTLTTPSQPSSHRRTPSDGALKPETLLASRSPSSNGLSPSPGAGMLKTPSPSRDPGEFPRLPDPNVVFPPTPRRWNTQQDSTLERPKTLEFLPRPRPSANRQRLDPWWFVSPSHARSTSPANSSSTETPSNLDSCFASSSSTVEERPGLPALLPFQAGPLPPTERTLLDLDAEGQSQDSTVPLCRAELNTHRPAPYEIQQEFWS
T14 sequence (O75676 whole entry): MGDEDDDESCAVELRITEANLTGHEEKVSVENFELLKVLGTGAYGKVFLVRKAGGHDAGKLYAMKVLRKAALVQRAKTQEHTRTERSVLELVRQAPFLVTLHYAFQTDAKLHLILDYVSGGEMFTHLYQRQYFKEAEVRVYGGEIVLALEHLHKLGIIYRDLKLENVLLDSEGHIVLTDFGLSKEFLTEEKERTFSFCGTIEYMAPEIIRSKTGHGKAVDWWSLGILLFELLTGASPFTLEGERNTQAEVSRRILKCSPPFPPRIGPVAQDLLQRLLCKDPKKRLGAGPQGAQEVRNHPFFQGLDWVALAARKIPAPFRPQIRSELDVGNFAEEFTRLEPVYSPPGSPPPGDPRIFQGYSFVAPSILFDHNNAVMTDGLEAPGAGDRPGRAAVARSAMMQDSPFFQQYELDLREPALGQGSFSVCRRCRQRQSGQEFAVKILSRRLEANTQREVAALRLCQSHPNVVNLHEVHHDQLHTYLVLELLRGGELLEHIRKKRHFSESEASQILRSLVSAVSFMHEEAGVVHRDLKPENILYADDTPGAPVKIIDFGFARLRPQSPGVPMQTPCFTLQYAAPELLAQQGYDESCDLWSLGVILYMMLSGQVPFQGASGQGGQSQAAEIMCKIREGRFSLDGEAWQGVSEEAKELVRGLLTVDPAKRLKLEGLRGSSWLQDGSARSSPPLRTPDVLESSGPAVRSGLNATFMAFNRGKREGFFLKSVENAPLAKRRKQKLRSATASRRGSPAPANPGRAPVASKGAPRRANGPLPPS
T9 sequence (Q15418 whole entry): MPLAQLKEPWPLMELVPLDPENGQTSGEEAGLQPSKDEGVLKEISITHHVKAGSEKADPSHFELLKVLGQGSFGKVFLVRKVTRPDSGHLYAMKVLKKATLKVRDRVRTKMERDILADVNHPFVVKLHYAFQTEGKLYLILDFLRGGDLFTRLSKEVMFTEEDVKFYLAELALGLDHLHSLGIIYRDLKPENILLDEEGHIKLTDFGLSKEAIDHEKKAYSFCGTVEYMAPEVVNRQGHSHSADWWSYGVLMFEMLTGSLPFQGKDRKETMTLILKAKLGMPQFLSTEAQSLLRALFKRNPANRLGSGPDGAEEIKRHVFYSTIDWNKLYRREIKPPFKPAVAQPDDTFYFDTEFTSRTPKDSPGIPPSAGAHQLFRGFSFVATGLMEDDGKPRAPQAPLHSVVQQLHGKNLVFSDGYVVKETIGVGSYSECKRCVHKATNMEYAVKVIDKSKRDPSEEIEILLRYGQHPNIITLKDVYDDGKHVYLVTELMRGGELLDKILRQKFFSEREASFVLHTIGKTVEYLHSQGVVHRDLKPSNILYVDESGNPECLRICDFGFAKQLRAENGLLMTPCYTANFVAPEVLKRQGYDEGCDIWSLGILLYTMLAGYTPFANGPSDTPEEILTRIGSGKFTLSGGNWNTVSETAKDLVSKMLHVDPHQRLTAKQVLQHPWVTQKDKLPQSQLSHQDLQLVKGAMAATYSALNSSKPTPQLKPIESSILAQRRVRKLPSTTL
T13 sequence (Q9UM73 19-1620): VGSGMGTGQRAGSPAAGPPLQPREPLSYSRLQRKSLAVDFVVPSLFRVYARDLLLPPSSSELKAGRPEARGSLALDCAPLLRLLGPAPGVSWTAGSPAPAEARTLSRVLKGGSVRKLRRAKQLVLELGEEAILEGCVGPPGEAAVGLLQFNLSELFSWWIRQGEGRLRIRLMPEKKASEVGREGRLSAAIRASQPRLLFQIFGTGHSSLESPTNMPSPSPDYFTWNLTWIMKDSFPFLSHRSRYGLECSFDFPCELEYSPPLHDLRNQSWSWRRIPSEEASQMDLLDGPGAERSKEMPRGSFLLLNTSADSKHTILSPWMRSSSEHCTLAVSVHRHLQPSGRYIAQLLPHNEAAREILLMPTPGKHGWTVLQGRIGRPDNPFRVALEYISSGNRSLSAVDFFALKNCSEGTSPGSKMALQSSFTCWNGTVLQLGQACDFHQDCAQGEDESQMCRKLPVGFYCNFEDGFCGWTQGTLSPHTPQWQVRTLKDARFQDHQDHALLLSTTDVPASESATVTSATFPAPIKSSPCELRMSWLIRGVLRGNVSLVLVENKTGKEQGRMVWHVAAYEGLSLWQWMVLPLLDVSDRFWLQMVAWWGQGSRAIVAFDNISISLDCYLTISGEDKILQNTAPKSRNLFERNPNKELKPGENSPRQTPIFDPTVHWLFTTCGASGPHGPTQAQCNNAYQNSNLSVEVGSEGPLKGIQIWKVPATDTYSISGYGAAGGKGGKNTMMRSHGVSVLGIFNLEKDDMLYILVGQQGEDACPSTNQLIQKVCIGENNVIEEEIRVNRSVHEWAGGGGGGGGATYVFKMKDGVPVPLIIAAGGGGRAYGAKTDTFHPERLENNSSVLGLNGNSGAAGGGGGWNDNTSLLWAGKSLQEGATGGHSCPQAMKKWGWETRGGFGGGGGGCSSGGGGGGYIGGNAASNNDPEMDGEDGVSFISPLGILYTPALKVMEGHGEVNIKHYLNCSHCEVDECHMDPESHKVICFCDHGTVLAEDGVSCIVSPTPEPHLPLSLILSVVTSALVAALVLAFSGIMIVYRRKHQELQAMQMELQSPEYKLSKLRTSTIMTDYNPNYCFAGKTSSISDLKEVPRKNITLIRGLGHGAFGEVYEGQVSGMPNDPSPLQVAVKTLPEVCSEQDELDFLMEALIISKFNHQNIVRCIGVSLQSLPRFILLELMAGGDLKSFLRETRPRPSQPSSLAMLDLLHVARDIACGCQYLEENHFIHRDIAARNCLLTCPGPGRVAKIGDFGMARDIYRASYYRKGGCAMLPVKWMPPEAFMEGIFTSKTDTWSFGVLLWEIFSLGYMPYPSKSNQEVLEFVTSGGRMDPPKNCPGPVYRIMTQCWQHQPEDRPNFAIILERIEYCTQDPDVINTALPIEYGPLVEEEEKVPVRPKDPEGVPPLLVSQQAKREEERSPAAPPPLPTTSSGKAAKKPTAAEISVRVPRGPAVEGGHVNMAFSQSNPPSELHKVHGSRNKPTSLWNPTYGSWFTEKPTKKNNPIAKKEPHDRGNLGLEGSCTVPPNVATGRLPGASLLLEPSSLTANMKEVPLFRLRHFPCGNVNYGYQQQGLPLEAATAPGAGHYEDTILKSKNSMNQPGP
T5 sequence (Q16539 whole entry): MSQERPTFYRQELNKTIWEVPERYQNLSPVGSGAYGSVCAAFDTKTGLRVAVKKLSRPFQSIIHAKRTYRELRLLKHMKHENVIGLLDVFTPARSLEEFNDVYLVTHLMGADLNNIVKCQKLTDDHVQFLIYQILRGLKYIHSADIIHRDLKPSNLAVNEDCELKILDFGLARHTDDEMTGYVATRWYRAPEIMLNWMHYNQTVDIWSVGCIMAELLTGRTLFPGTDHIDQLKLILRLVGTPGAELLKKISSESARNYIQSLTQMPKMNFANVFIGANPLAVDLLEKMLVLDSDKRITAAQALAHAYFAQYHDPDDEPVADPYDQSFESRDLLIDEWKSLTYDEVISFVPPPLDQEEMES
T3 sequence (Q9HCP0 whole entry): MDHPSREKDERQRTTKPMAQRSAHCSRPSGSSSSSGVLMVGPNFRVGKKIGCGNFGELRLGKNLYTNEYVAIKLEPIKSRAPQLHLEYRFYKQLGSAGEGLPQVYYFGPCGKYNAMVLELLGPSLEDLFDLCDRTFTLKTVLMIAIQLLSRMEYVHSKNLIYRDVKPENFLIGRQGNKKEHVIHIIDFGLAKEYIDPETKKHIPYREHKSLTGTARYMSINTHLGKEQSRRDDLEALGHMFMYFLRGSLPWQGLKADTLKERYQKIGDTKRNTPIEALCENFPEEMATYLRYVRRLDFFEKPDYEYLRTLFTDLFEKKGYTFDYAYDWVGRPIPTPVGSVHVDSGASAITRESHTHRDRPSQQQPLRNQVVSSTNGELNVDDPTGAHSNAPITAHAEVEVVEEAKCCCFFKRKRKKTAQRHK

As for `Br.Cc1sc(NCc2ccccc2)nc1-c1c[nH]c2ncc(Br)cc12` [Compound 41, N-Benzyl-4-(5-bromo-1H-pyrrolo[2,3-b]pyridin-3-yl)-5-methylthiazol-2-amine Hydrobromide], the remaining activity at 10 µM came out at 66% on PKCα(h); 111% on PKA(h); 93% on CK1γ1(h); 27% at CDK1/cyclinB(h); 101% on SAPK2a(h); 55% on CDK7/cyclinH/MAT1(h). For the same compound, the remaining activity at 10 µM at MAPKAP-K2(h) stood at 33%; on NEK2(h), 56%; on Rsk1(h) it was 44%; at MLK1(h), 8%; on EGFR(h), 50%; on CaMKI(h), 89%. The remaining activity at 10 µM on ALK(h) is 38%; on MSK2(h), 59%; on GSK3β(h), 58%. This compound also came in with an inhibition at 10 µM against MLK1(h) above 90%. In addition, the “Differentiation toward astrocytes (GFAP)” value in [1] is given as “notably directed the differentiation toward the astrocytic phenotype”. The “Differentiation toward oligodendrocytes (OLIG2)” value in [1] was “markedly deleterious for oligodendrocytes”.

As for `Br.Cc1sc(NCc2ccnc(Cl)c2)nc1-c1c[nH]c2ncccc12` [Compound 43, N-((2-Chloropyridin-4-yl)methyl)-5-methyl-4-(1H-pyrrolo[2,3-b]pyridin-3-yl)thiazol-2-amine Hydrobromide], the remaining activity at 10 µM at PKCα(h) stood at 28%; at PKA(h) it was 8%; at CK1γ1(h) it was 77%; on CDK1/cyclinB(h) it was 20%; at SAPK2a(h) it was 103%; at CDK7/cyclinH/MAT1(h), 62%. Also, the remaining activity at 10 µM on MAPKAP-K2(h) was determined as 45%; at NEK2(h) it was 84%; on Rsk1(h) it was 3%; at MLK1(h), 12%; on EGFR(h), 86%; at CaMKI(h), 80%. Also, the remaining activity at 10 µM at ALK(h) came out at 61%; on MSK2(h) it was 1%. The inhibition at 10 µM against PKA(h), against Rsk1(h) and against MSK2(h) was above 90% each time. Further, the Papp A→B at 90 min, 100 μM in [2] is 32 ± 5.38 ×10⁻⁶ cm/s. Moreover, the “Differentiation toward astrocytes (GFAP)” value in series [1] is listed as “notably directed the differentiation toward the astrocytic phenotype”. The “Differentiation toward oligodendrocytes (OLIG2)” value in series [1] is reported as “this effect was mitigated”.
